{"source": "patent US20240124510A1", "about": "“Cyclic Glycoaminoacid Derivatives” (TFCHEM, priority 2021, published 2024)", "assay_type_in_all_cases": "cell-based", "key": {"[1]": {"tested_on": "Normal human epidermal keratinocytes (NHEK)", "assay": "Lipid peroxidation in NHEK under UV stimulation (C11-fluor probe, flow cytometry)", "conditions": "for % Irradiated control (lipid peroxidation) / % Protection (lipid peroxidation) / C11-fluor 1/GMFI Mean (AU) / C11-fluor 1/GMFI (AU) / C11-fluor GMFI (AU): irradiated UVB 300 mJ/cm^2 (+UVA 2.1 J/cm^2); for C11-fluor 1/GMFI (AU) / C11-fluor GMFI (AU): individual replicates", "experimental": "Normal human epidermal keratinocytes were seeded in 48-well plates and cultured in culture medium for 24 hours and then in assay medium for a further 24 hours. The medium was then removed and replaced by assay medium containing or not (irradiated control) the test compounds or the reference (BHA—butylated hydroxyanisole, lipid peroxidation inhibitor—at 100 μM) and the cells were pre-incubated for 24 hours. After pre-incubation, the specific fluorescent probe for the measurement of lipid peroxides (C11-fluor) was added and the cells were incubated for 45 minutes. Then, the medium was removed and replaced by assay medium containing or not (irradiated control and test compound conditions) the reference and the cells were irradiated with UVB (+UVA)−300 mJ/cm^2 (+2.1 J/cm^2). The lamp used was a SOL500 Sun Simulator equipped with an H2 filter (Dr. Hbnle. AG). After irradiation, the medium was removed and replaced by assay medium containing or not (irradiated control) the test compounds or the reference and the cells were incubated for 30 minutes before flow cytometry analysis. A non-irradiated control condition was performed in parallel. All experimental conditions were performed in triplicate.\nAt the end of the incubation, in each well, the cells were trypsinized and transferred into specific tubes for the analysis of C11-fluor fluorescence intensity using a BD FACSVerse™ flow cytometer (acquisition of 2000 to 5000 events per tube). The C11-fluor fluorescent probe is a lipid analogue which integrates cell membranes. As the fluorescence intensity of this probe is decreased with oxidation, it is inversely proportional to the lipid peroxidation. In order to facilitate the result interpretation, the lipid peroxidation was expressed using the value “1/fluorescence intensity” in order to have a direct proportionality between the induction of lipid peroxidation and the values of “% of irradiated control”.\nResults presented in Table 24 are expressed as fluorescence intensity and as […] of protection compared to the control."}, "Hyaluronic Acid (HA)": {"tested_on": "Hyaluronic Acid (HA)", "assay": "Hyaluronic acid secretion in coculture of human aged fibroblasts and mature adipocytes (ELISA)", "conditions": "for secretion of HA, normalized by fibroblasts number, in percentage of the coculture control condition, Values (%): individual replicates", "source_text": "(§1) In order to evaluate its effect on fibroblast matrix and its anti-inflammatory properties, the effect of compound 6 has been tested on an adipocytes-aged fibroblasts coculture model, mimicking the interactions between dermis and hypodermis in the skin and allowed to explore in parallel the biological effects of the products on two cellular targets.\n(§2) • Experimental model: co-culture of human mature adipocytes cultured in 3D and human dermal fibroblasts cultured in 2D (AM3D-FB2D co-culture). This experimental model of AM3D-FB2D co-culture mimicked the interactions between dermis and hypodermis in the skin and allowed to explore in parallel the biological effects of the products on two cellular targets. • Donor characteristics: This study was performed on mature adipocytes and fibroblasts from two different donors (one donor for mature adipocytes and another donor for dermal fibroblasts). • Fibroblasts donor=person, BMI=28 kg/m^2 • Adipocytes donor=person, BMI=21.4 kg/m^2 • Treatment procedure: compound 6 was added to the co-culture medium daily for up to 6 days\n(§3) Dermal fibroblasts were seeded in DMEM 10% FBS at 10000 cells/well. The day after, the adipocytes capsules of 50 μl were added in suspension above the fibroblasts and the medium was changed and replaced by a specific culture medium for the co-culture AM3D-FB2D. The formation of adipocytes capsules followed an internal standardized protocol. Briefly, the fully mature adipocytes were isolated from the hypodermis after digestion by collagenase. The isolated adipocytes were then washed with a wash buffer and encapsulated in a peptidic hydrogel to form 3D adipocytes capsules of 50 μl in size. Cells were incubated at 37° C. and 5% CO2 overnight for stabilization. Treatments were initiated at DO with a medium change at DO, D2, D3 and D5. The entire culture media of 24 h incubation was collected at D3 and D6, before being centrifugated and stored at −80° C. Each culture condition was done in triplicate.\n(§4) The biochemical analyses on culture media were performed via ELISA using specific kits according to the manufacturer's recommendations: IL-6 (Duoset DY206, R&D Systems), and Hyaluronic Acid (HA) (Duoset, DY3614-05, R&D Systems and Procollagen I (Duoset, DY6220-05, R&D Systems) The results of HA and Procollagen I were normalized by fibroblasts cell number regarding the fact that these molecules were secreted mainly by fibroblasts. All the biochemical results were represented in percentage of the control condition.\nTo evaluate the effect of the compound 6 on fibroblast's matrix, the extracellular concentrations of Hyaluronic Acid (HA), that is secreted only by the fibroblasts, were measured at D3 and D6."}, "IL-6": {"tested_on": "IL-6", "assay": "IL-6 secretion in coculture of human aged fibroblasts and mature adipocytes (AM3D-FB2D, ELISA)", "conditions": "for secretion of IL-6 in percentage of the coculture control condition, Values (%): individual replicates", "source_text": "as §1, §2, §3, §4\nTo evaluate the effect of the compound 6 on inflammation, the extracellular concentrations of IL-6, that is secreted by the fibroblasts but mainly by the adipocytes, were measured at D3 and D6."}}, "note": "“And” between values parts separate entries of the source, which are not always exact repeats. Identical values can stand only once."}
{"smiles": "N[C@H]1CCCN(CC(F)(F)[C@]2(O)O[C@H](CO)[C@H](O)[C@H](O)[C@H]2O)C1=O", "note": "[Compound 6]", "values": [{"measurement": "% Irradiated control (lipid peroxidation)", "setting": "[1]; 1 mg/ml", "result": 66, "unit": "%"}, {"measurement": "% Protection (lipid peroxidation)", "setting": "[1]; 1 mg/ml", "result": 37, "unit": "%"}, {"measurement": "C11-fluor 1/GMFI Mean (AU)", "setting": "[1]; 1 mg/ml", "result": "5.6E−04", "unit": "AU"}, {"measurement": "C11-fluor 1/GMFI (AU)", "setting": "[1]; 1 mg/ml", "result": "4.7E−04 AU and 5.9E−04 AU and 6.2E−04 AU"}, {"measurement": "C11-fluor GMFI (AU)", "setting": "[1]; 1 mg/ml", "result": "2118 AU and 1705 AU and 1608 AU"}, {"measurement": "% Irradiated control (lipid peroxidation)", "setting": "[1]; 3 mg/ml", "result": 65, "unit": "%"}, {"measurement": "% Protection (lipid peroxidation)", "setting": "[1]; 3 mg/ml", "result": 38, "unit": "%"}, {"measurement": "C11-fluor 1/GMFI Mean (AU)", "setting": "[1]; 3 mg/ml", "result": "5.6E−04", "unit": "AU"}, {"measurement": "C11-fluor 1/GMFI (AU)", "setting": "[1]; 3 mg/ml", "result": "4.7E−04 AU and 5.1E−04 AU and 7.0E−04 AU"}, {"measurement": "C11-fluor GMFI (AU)", "setting": "[1]; 3 mg/ml", "result": "2143 AU and 1970 AU and 1426 AU"}, {"measurement": "Protection on lipid peroxidation (compared to the control)", "setting": "[1]; NHEK irradiated with UVB (+UVA) 300 mJ/cm2 (+2.1 J/cm2), concentration not given", "result": 38, "unit": "%"}, {"measurement": "HA secretion, normalized by fibroblasts number, % of the control", "setting": "Hyaluronic Acid (HA); 1 mg/ml, 3 days of treatment", "result": 140, "unit": "%"}, {"measurement": "HA secretion, normalized by fibroblasts number, % of the control", "setting": "Hyaluronic Acid (HA); 1 mg/ml, 6 days of treatment", "result": 189, "unit": "%"}, {"measurement": "HA secretion, normalized by fibroblasts number, % of the control", "setting": "Hyaluronic Acid (HA); 2 mg/ml, 6 days of treatment", "result": 225, "unit": "%"}, {"measurement": "HA secretion, normalized by fibroblasts number, % of the control", "setting": "Hyaluronic Acid (HA); 3 mg/ml, 6 days of treatment", "result": 164, "unit": "%"}, {"measurement": "secretion of HA, normalized by fibroblasts number, in percentage of the coculture control condition, Mean (%)", "setting": "Hyaluronic Acid (HA); D3, 1 mg/ml", "result": 140, "unit": "%"}, {"measurement": "secretion of HA, normalized by fibroblasts number, in percentage of the coculture control condition, Values (%)", "setting": "Hyaluronic Acid (HA); D3, 1 mg/ml", "result": "127% and 123% and 169%"}, {"measurement": "secretion of HA, normalized by fibroblasts number, in percentage of the coculture control condition, Mean (%)", "setting": "Hyaluronic Acid (HA); D3, 2 mg/ml", "result": 90, "unit": "%"}, {"measurement": "secretion of HA, normalized by fibroblasts number, in percentage of the coculture control condition, Values (%)", "setting": "Hyaluronic Acid (HA); D3, 2 mg/ml", "result": "96% and 93% and 80%"}, {"measurement": "secretion of HA, normalized by fibroblasts number, in percentage of the coculture control condition, Mean (%)", "setting": "Hyaluronic Acid (HA); D3, 3 mg/ml", "result": 85, "unit": "%"}, {"measurement": "secretion of HA, normalized by fibroblasts number, in percentage of the coculture control condition, Values (%)", "setting": "Hyaluronic Acid (HA); D3, 3 mg/ml", "result": "83% and 75% and 98%"}, {"measurement": "secretion of HA, normalized by fibroblasts number, in percentage of the coculture control condition, Mean (%)", "setting": "Hyaluronic Acid (HA); D6, 1 mg/ml", "result": 189, "unit": "%"}, {"measurement": "secretion of HA, normalized by fibroblasts number, in percentage of the coculture control condition, Values (%)", "setting": "Hyaluronic Acid (HA); D6, 1 mg/ml", "result": "172% and 157% and 237%"}, {"measurement": "secretion of HA, normalized by fibroblasts number, in percentage of the coculture control condition, Mean (%)", "setting": "Hyaluronic Acid (HA); D6, 2 mg/ml", "result": 225, "unit": "%"}, {"measurement": "secretion of HA, normalized by fibroblasts number, in percentage of the coculture control condition, Values (%)", "setting": "Hyaluronic Acid (HA); D6, 2 mg/ml", "result": "240% and 233% and 203%"}, {"measurement": "secretion of HA, normalized by fibroblasts number, in percentage of the coculture control condition, Mean (%)", "setting": "Hyaluronic Acid (HA); D6, 3 mg/ml", "result": 164, "unit": "%"}, {"measurement": "secretion of HA, normalized by fibroblasts number, in percentage of the coculture control condition, Values (%)", "setting": "Hyaluronic Acid (HA); D6, 3 mg/ml", "result": "121% and 213% and 159%"}, {"measurement": "IL-6 secretion in percentage of the coculture control condition", "setting": "IL-6; 2 mg/ml, D3", "result": 72, "unit": "%"}, {"measurement": "IL-6 secretion in percentage of the coculture control condition", "setting": "IL-6; 2 mg/ml, D6", "result": 53, "unit": "%"}, {"measurement": "IL-6 secretion in percentage of the coculture control condition", "setting": "IL-6; 3 mg/ml, D3", "result": 73, "unit": "%"}, {"measurement": "IL-6 secretion in percentage of the coculture control condition", "setting": "IL-6; 3 mg/ml, D6", "result": 61, "unit": "%"}, {"measurement": "secretion of IL-6 in percentage of the coculture control condition, Mean (%)", "setting": "IL-6; D3, 2 mg/ml", "result": 72, "unit": "%"}, {"measurement": "secretion of IL-6 in percentage of the coculture control condition, Values (%)", "setting": "IL-6; D3, 2 mg/ml", "result": "56% and 78% and 82%"}, {"measurement": "secretion of IL-6 in percentage of the coculture control condition, Mean (%)", "setting": "IL-6; D3, 3 mg/ml", "result": 73, "unit": "%"}, {"measurement": "secretion of IL-6 in percentage of the coculture control condition, Values (%)", "setting": "IL-6; D3, 3 mg/ml", "result": "75% and 63% and 79%"}, {"measurement": "secretion of IL-6 in percentage of the coculture control condition, Mean (%)", "setting": "IL-6; D6, 2 mg/ml", "result": 53, "unit": "%"}, {"measurement": "secretion of IL-6 in percentage of the coculture control condition, Values (%)", "setting": "IL-6; D6, 2 mg/ml", "result": "46% and 66% and 45%"}, {"measurement": "secretion of IL-6 in percentage of the coculture control condition, Mean (%)", "setting": "IL-6; D6, 3 mg/ml", "result": 61, "unit": "%"}, {"measurement": "secretion of IL-6 in percentage of the coculture control condition, Values (%)", "setting": "IL-6; D6, 3 mg/ml", "result": "59% and 54% and 71%"}]}
